Results from patent US20170360671A1, “METHOD FOR PREPARING 3,6-ANHYDRO-L-GALACTOSE, AND USE THEREOF” (Korea University Research and Business Foundation, priority 2012, published 2017).

Tested on: mushroom-derived tyrosinase
Assay: In vitro (cell-free) tyrosinase activity assay with L-tyrosine as substrate
Type: biochemical
Settings: 200 μM
Protocol: The in vitro tyrosinase analyses were performed using a slight modification of the reported method (Ishihara Y et al., The journal of antibiotics (Tokyo) 1991; 44:25-32; An S M, Koh J S, Boo Y C, Phytotherapy Research 2010; 24:1175-1180). In brief, 250 μl of a 0.1M potassium phosphate buffer (pH 6.8) was put into a 24-well plate, and 25 μl of a mushroom-derived tyrosinase (2,000 units/mL), 25 μl of a sample, and 225 μl of distilled water were put into each well. The plate was incubated at 25° C. for 10 minutes, and 25 μl of 1 mM L-tyrosine used as a substrate was added to the wells. Then, the plate was incubated at 25° C. for 10 minutes, and the optical density of each well measured at 475 nm using a microplate reader (Sunrise-Basic Tecan, Austria). Each of the measured values was represented by a variation (%) with respect to the control. L-tyrosine was used as the substrate, and arbutin was used as the positive control. The results were represented by the relative tyrosinase activities to the non-treated control. Next, effects of L-AHG on the tyrosinase activities were examined using a cell-free assay system. Many reports disclosed that the mushroom-derived tyrosinase was primarily used as a model since it was able to be used in the form of a tablet. […] The results were represented by the relative tyrosinase activities to the non-treated control. […]

OC[C@H]1O[C@@H](Oc2ccc(O)cc2)[C@H](O)[C@@H](O)[C@@H]1O [arbutin]
tyrosinase activities relative to the non-treated control: 40%
